Source: patent US20230271950A1, “ANTIBACTERIAL PICOLINAMIDE COMPOUNDS” (University of Notre Dame Du Lac, priority 2020, published 2023)
≈ marks a conversion by molar mass, not a printed value. Read-outs that look alike come from different tables or passages of the source.

Columns and labels:
[1] = test system: S. aureus ATCC29213; test: MIC against MSSA; format: cell-based, Staphylococcus aureus; conditions: Staphylococcus aureus; MSSA ATCC 29213; Table 10, unit inferred; read-out: Activity (MIC) against S. aureus
[2] = test system: MRSA (NRS70, NRS119); test: MIC against MRSA strains; format: cell-based, Staphylococcus aureus; conditions: for MIC: Staphylococcus aureus
[3] = test system: E. faecium NCTC7171; test: MIC against E. faecium; format: cell-based, Enterococcus faecium; conditions: Enterococcus faecium, NCTC7171; E. faecium NCTC 7171; Table 10, unit inferred; read-out: Activity (MIC) against E. faecium
[4] = test system: C. difficile; test: MIC by broth microdilution against C. difficile strains; format: cell-based, Clostridioides difficile; conditions: for MIC: Clostridioides difficile; for Selectivity: MIC MRSA/MIC C. difficile, Table 3; for MIC C. difficile: ATCC 43255, ribotype 087
[5] = NRS70 strain, Table 3 (SAR^2 and SAR^3), read-out: MIC MRSA
[6] = ATCC43255, ATCC 43255, ribotype 087, Table 3 (SAR^2 and SAR^3), read-out: MIC C. difficile
[7] = NRS70 strain, Table 2 (SAR^1), read-out: MIC MRSA
[8] = ATCC43255, ATCC 43255, ribotype 087, Table 2 (SAR^1), read-out: MIC C. difficile
[9] = MRSA strain NRS70, read-out: MIC against MRSA
[10] = ATCC43255, C. difficile ATCC 43255, read-out: MIC against C. difficile

Compound | MIC [1] | MIC [2, 5] | MIC [3] | MIC [4, 6] | Selectivity [4] | further results
O=C(Nc1ncco1)c1cc(-c2ccc(Cl)c(Cl)c2)ncc1F [Compound 70, 2-(3,4-Dichlorophenyl)-5-fluoro-N-(oxazol-2-yl)isonicotinamide] | 0.25 µg/mL (≈ 0.71 µM) | 0.0625 µg/mL (≈ 0.177 µM) | 0.5 µg/mL (≈ 1.42 µM) | 0.125 µg/mL (≈ 0.355 µM) | 0.5 | –
O=C(Nc1ncco1)c1ccnc(Oc2cccc(Cl)c2)c1 [Compound 100, 2-(3-Chlorophenoxy)-N-(oxazol-2-yl)isonicotinamide] | 1 µg/mL (≈ 3.17 µM) | – | 2 µg/mL (≈ 6.33 µM) | – | – | –
O=C(Nc1ncco1)c1ccnc(-c2ccc(OC(F)(F)F)cc2)c1 [Compound 46, N-(Oxazol-2-yl)-2-(4-(trifluoromethoxy)phenyl)isonicotinamide] | 0.5 µg/mL (≈ 1.43 µM) | 1 µg/mL (≈ 2.86 µM) | 2 µg/mL (≈ 5.73 µM) | 0.125 µg/mL (≈ 0.358 µM) | 8 | –
O=C(Nc1ncco1)c1ccnc(-c2ccc(Cl)cc2)c1 [Compound 32, 2-(4-Chlorophenyl)-N-(oxazol-2-yl)isonicotinamide] | 1 µg/mL (≈ 3.34 µM) | 1 µg/mL (≈ 3.34 µM) | 2 µg/mL (≈ 6.67 µM) | 0.5 µg/mL (≈ 1.67 µM) | 2 | –
O=C(Nc1ncco1)c1cc(-c2ccc(F)c(Cl)c2)ccn1 [Compound 91, 4-(3-Chloro-4-fluorophenyl)-N-(oxazol-2-yl)picolinamide] | ≥ 128 µg/mL | 128 µg/mL (≈ 403 µM) | ≥ 128 µg/mL | 0.25 µg/mL (≈ 0.787 µM) | 512 | –
O=C(Nc1ncco1)c1ccnc(-c2cccc(F)c2)c1 [Compound 37, 2-(3-Fluorophenyl)-N-(oxazol-2-yl)isonicotinamide] | 2 µg/mL (≈ 7.06 µM) | 2 µg/mL (≈ 7.06 µM) | 4 µg/mL (≈ 14.1 µM) | 1 µg/mL (≈ 3.53 µM) | 2 | –
O=C(Nc1ncco1)c1ccnc(Oc2ccc(Cl)c(F)c2)c1 [Compound 102, 2-(4-Chloro-3-fluorophenoxy)-N-(oxazol-2-yl)isonicotinamide] | 1 µg/mL (≈ 3 µM) | – | 2 µg/mL (≈ 5.99 µM) | – | – | –
O=C(Nc1ncco1)c1ccnc(-c2cccc(Cl)c2)c1 [Compound 33, 2-(3-Chlorophenyl)-N-(oxazol-2-yl)isonicotinamide] | 0.5 µg/mL (≈ 1.67 µM) | 0.25 µg/mL (≈ 0.834 µM) | 1 µg/mL (≈ 3.34 µM) | 0.5 µg/mL (≈ 1.67 µM) | 0.5 | –
O=C(Nc1ncco1)c1ccnc(Oc2ccc(OC(F)(F)F)cc2)c1 [Compound 104, N-(Oxazol-2-yl)-2-(4-(trifluoromethoxy)phenoxy)isonicotinamide] | 1 µg/mL (≈ 2.74 µM) | – | 16 µg/mL (≈ 43.8 µM) | – | – | –
O=C(Nc1ncco1)c1ccnc(-c2cc(Cl)cc(Cl)c2)c1 [Compound 41, 2-(3,5-Dichlorophenyl)-N-(oxazol-2-yl)isonicotinamide] | 0.06 µg/mL (≈ 0.18 µM) | 0.0625 µg/mL (≈ 0.187 µM) | 0.06 µg/mL (≈ 0.18 µM) | 0.0625 µg/mL (≈ 0.187 µM) | 1 | –
O=C(Nc1ncco1)c1ccnc(OCC(F)(F)F)c1 [Compound 64, N-(Oxazol-2-yl)-2-(2,2,2-trifluoroethoxy)isonicotinamide] | 8 µg/mL (≈ 27.9 µM) | 4 µg/mL (≈ 13.9 µM) | 8 µg/mL (≈ 27.9 µM) | 2 µg/mL (≈ 6.96 µM) | 2 | –
O=C(Nc1ncco1)c1ccnc(Oc2ccc(F)c(Cl)c2)c1 [Compound 101, 2-(3-Chloro-4-fluorophenoxy)-N-(oxazol-2-yl)isonicotinamide] | 1 µg/mL (≈ 3 µM) | – | 2 µg/mL (≈ 5.99 µM) | – | – | –
O=C(Nc1ncco1)c1ccnc(-c2ccc(Cl)c(Cl)c2)c1F [Compound 66, 2-(3,4-Dichlorophenyl)-3-fluoro-N-(oxazol-2-yl)isonicotinamide] | 0.5 µg/mL (≈ 1.42 µM) | 2 µg/mL (≈ 5.68 µM) | 1 µg/mL (≈ 2.84 µM) | 0.25 µg/mL (≈ 0.71 µM) | 8 | –
O=C(Nc1ncco1)c1ccnc(Oc2cccc(OC(F)(F)F)c2)c1 [Compound 105, N-(Oxazol-2-yl)-2-(3-(trifluoromethoxy)phenoxy)isonicotinamide] | 1 µg/mL (≈ 2.74 µM) | – | 16 µg/mL (≈ 43.8 µM) | – | – | –
CC(C)(C)OC(=O)N1CCN(C(=O)c2cnc(NC(=O)c3ccnc(-c4ccc(Cl)c(Cl)c4)c3)o2)CC1 [Compound 30, Tert-butyl 4-(2-(2-(3,4-Dichlorophenyl)isonicotinamido)oxazole-5-carbonyl) piperazine-1-carboxylate] | – | – | – | – | – | MIC MRSA ([2]; NRS70 strain, Table 2 (SAR^1)): 2 µg/mL (≈ 3.66 µM); MIC C. difficile ([4]; Table 2 (SAR^1)): 0.25 µg/mL (≈ 0.458 µM)
O=C(Nc1ncco1)c1cncc(-c2ccc(F)c(F)c2)c1 [Compound 82, 5-(3,4-Difluorophenyl)-N-(oxazol-2-yl)nicotinamide] | – | 8 µg/mL (≈ 26.6 µM) | – | 4 µg/mL (≈ 13.3 µM) | 2 | –
O=C(Nc1ncco1)c1ccnc(-c2cccc(Cl)c2)n1 [Compound 84, 2-(3-Chlorophenyl)-N-(oxazol-2-yl)pyrimidine-4-carboxamide] | – | 4 µg/mL (≈ 13.3 µM) | – | 4 µg/mL (≈ 13.3 µM) | 1 | –
O=C(Nc1ncco1)c1cc(-c2cccc(OC(F)(F)F)c2)ccn1 [Compound 96, N-(Oxazol-2-yl)-4-(3-(trifluoromethoxy)phenyl)picolinamide] | – | ≥ 256 µg/mL | – | 0.5 µg/mL (≈ 1.43 µM) | ≥512 | –

Compound | MIC [1] | MIC [2, 5] | MIC [3] | MIC [4, 6] | Selectivity [4] | further results
O=C(Nc1nc2ncccc2o1)c1ccnc(-c2ccc(Cl)c(Cl)c2)c1 [Compound 22, 2-(3,4-Dichlorophenyl)-N-(oxazolo[4,5-b]pyridin-2-yl)isonicotinamide] | – | – | – | – | – | MIC [2, 7]: 0.25 µg/mL (≈ 0.649 µM); MIC [4, 8]: 0.0625 µg/mL (≈ 0.162 µM)
O=C(Nc1ncco1)c1cc(-c2ccc(Cl)c(F)c2)ncc1F [Compound 74, 2-(4-Chloro-3-fluorophenyl)-5-fluoro-N-(oxazol-2-yl)isonicotinamide] | – | 2 µg/mL (≈ 5.96 µM) | – | 0.25 µg/mL (≈ 0.745 µM) | 8 | –
CC(C)(C)OC(=O)NCCCCCCOC(=O)c1cnc(NC(=O)c2ccnc(-c3ccc(Cl)c(Cl)c3)c2)o1 [Compound 27, 6-((Tert-butoxycarbonyl)amino)hexyl 2-(2-(3,4-dichlorophenyl)isonicotinamido) oxazole-5-carboxylate] | – | – | – | – | – | MIC MRSA ([2]; NRS70 strain, Table 2 (SAR^1)): 16 µg/mL (≈ 27.7 µM); MIC C. difficile ([4]; Table 2 (SAR^1)): 8 µg/mL (≈ 13.9 µM)
O=C(Nc1ncco1)c1ccnc(Oc2cccc(C(F)(F)F)c2)c1 [Compound 103, N-(Oxazol-2-yl)-2-(3-(trifluoromethyl)phenoxy)isonicotinamide] | 1 µg/mL (≈ 2.86 µM) | – | 1 µg/mL (≈ 2.86 µM) | – | – | –
O=C(Nc1nccs1)c1ccnc(-c2ccc(Cl)c(Cl)c2)c1 [Compound 16, 2-(3,4-Dichlorophenyl)-N-(thiazol-2-yl)isonicotinamide] | – | – | – | – | – | MIC [2, 9]: ≥ 64 µg/mL; MIC [2, 7]: ≥ 256 µg/mL; MIC [4, 8]: ≥ 128 µg/mL; MIC [4, 10]: ≥ 64 µg/mL
O=C(Nc1ncco1)c1cccc(-c2ccc(Cl)c(F)c2)n1 [Compound 78, 6-(4-Chloro-3-fluorophenyl)-N-(oxazol-2-yl)picolinamide] | – | 128 µg/mL (≈ 403 µM) | – | ≥ 16 µg/mL | ≤ 8 | –
O=C(Nc1ncco1)c1cncc(-c2ccc(Cl)c(Cl)c2)n1 [Compound 86, 6-(3,4-Dichlorophenyl)-N-(oxazol-2-yl)pyrazine-2-carboxamide] | – | 4 µg/mL (≈ 11.9 µM) | – | 8 µg/mL (≈ 23.9 µM) | 0.5 | –
O=C(Nc1ncco1)c1ccnc(-c2ccccc2)c1 [Compound 60, N-(Oxazol-2-yl)-2-phenylisonicotinamide] | – | 8 µg/mL (≈ 30.2 µM) | – | 8 µg/mL (≈ 30.2 µM) | 1 | –
O=C(Nc1ncco1)c1cc(-c2ccc(F)c(Cl)c2)ncc1F [Compound 73, 2-(3-Chloro-4-fluorophenyl)-5-fluoro-N-(oxazol-2-yl)isonicotinamide] | – | 2 µg/mL (≈ 5.96 µM) | – | 0.5 µg/mL (≈ 1.49 µM) | 4 | –
C#CCCCCCOC(=O)c1ccc2oc(NC(=O)c3cc(Oc4ccc(F)c(F)c4)ccn3)nc2c1 [Compound 117, Hept-6-yn-1-yl 2-(4-(3,4-difluorophenoxy)picolinamido)benzo[d]oxazole-5-carboxylate] | 32 µg/mL (≈ 63.3 µM) | – | 128 µg/mL (≈ 253 µM) | – | – | –
O=C(Nc1ncco1)c1ccnc(-c2ccccc2F)c1 [Compound 38, 2-(2-Fluorophenyl)-N-(oxazol-2-yl)isonicotinamide] | – | 1 µg/mL (≈ 3.53 µM) | – | 4 µg/mL (≈ 14.1 µM) | 0.25 | –
O=C(Nc1ncco1)c1ccnc(-c2cccc([N+](=O)[O-])c2)c1 [Compound 50, 2-(3-Nitrophenyl)-N-(oxazol-2-yl)isonicotinamide] | – | ≥ 256 µg/mL | – | 2 µg/mL (≈ 6.45 µM) | ≥128 | –
O=C(Nc1ncc(C(=O)N2CCOCC2)o1)c1ccnc(-c2ccc(Cl)c(Cl)c2)c1 [Compound 29, 2-(3,4-Dichlorophenyl)-N-(5-(morpholine-4-carbonyl)oxazol-2-yl)isonicotinamide] | – | – | – | – | – | MIC [2, 7]: 2 µg/mL (≈ 4.47 µM); MIC [4, 8]: 0.125 µg/mL (≈ 0.279 µM)
O=C(Nc1ncco1)c1ccnc(-c2cnc3ccccc3c2)c1 [Compound 61, N-(Oxazol-2-yl)-2-(quinolin-3-yl)isonicotinamide] | – | 16 µg/mL (≈ 50.6 µM) | – | 4 µg/mL (≈ 12.6 µM) | 4 | –
O=C(Nc1ncc[nH]1)c1ccnc(-c2ccc(Cl)c(Cl)c2)c1 [Compound 17, 2-(3,4-Dichlorophenyl)-N-(1H-imidazol-2-yl)isonicotinamide] | – | – | – | – | – | MIC [2, 9]: ≥ 64 µg/mL; MIC [2, 7]: ≥ 256 µg/mL; MIC [4, 8]: ≥ 128 µg/mL; MIC [4, 10]: ≥ 64 µg/mL
CNC(=O)c1ccnc(-c2ccc(Cl)c(Cl)c2)c1 [Compound 20, 2-(3,4-Dichlorophenyl)-N-methylisonicotinamide] | – | – | – | – | – | MIC [2, 9]: ≥ 64 µg/mL; MIC [2, 7]: ≥ 256 µg/mL; MIC [4, 8]: 64 µg/mL (≈ 228 µM); MIC [4, 10]: ≥ 64 µg/mL
CC(C)Oc1ccc(-c2cc(C(=O)Nc3ncco3)ccn2)cc1 [Compound 52, 2-(4-Isopropoxyphenyl)-N-(oxazol-2-yl)isonicotinamide] | – | 4 µg/mL (≈ 12.4 µM) | – | 2 µg/mL (≈ 6.19 µM) | 2 | –
